Tests used:
HDAC = assay: In vitro fluorescent histone deacetylase assay (Biomol HDAC fluorescent activity kit, HeLa cell nuclear extract); format: biochemical; conditions: 100 μM compound; HeLa cell nuclear extract as source of HDAC activity; 50 μM substrate, 10 min at room temperature
Method in brief: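 HeLa nuclear extract as HDAC source with fluorogenic substrate at 50 μM final, reacting 10 min at room temperature before stop. Compounds serially diluted in assay buffer, final DMSO ≤2%; fluorescence read at ex 355 nm / em 460 nm.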

HCT116 cells = assay: Whole cell cytotoxicity assay: Sulforhodamine B; format: cell-based; conditions: Homo sapiens, HCT-116; 100 μM compound; 48 hours incubation with drug; Sulforhodamine B staining; read-out: % Inhibition of HCT116 cell growth @ 100 μM

| SMILES | % Inhibition of HDAC @ 100 μM (HDAC) | inhibition at 100 µM (HCT116 cells) |
| --- | --- | --- |
| O=C(NO)c1cnc(N2CCc3c(oc4ccccc34)C2)nc1 [Example 119, 2-(3,4-dihydro[1]benzofuro[2,3-c]pyridin-2(1)-yl)-N-hydroxypyrimidine-5-carboxamide] | 99.3% | 98.6% |
| O=C(NO)c1cnc(N2CCc3[nH]c4cc(-c5ccccc5)ccc4c3C2)nc1 [Example 120, N-hydroxy-2-{7-phenyl-1,3,4,5-tetrahydro-2H-pyrido[4,3-b]indol-2-yl}pyrimidine-5-carboxamide] | 99.6% | 97.6% |
| O=C(NO)c1cnc(N2CCc3[nH]c4ccccc4c(=O)c3C2)nc1 [Example 122, N-hydroxy-2-(10-oxo-3,4,5,10-tetrahydrobenzo[b]-1,6-naphthyridin-2(1H)-yl)pyrimidine-5-carboxamide] | 100% | 44.4% |
| CN1CCN(Cc2ccc3[nH]c4c(c3c2)CN(c2ncc(C(=O)NO)cn2)CC4)CC1 [Example 123, N-hydroxy-2-{8-[(4-methylpiperazin-1-yl)methyl]-1,3,4,5-tetrahydro-2H-pyrido[4,3-b]indol-2-yl}pyrimidine-5-carboxamide] | 100% | 97% |
